Laboratory results reported in patent US7741354B2, “Inhibitors of glutaminyl cyclase” (Probiodrug AG, priority 2006, dated 2010).
pIC50: −log10 of the molar value.

Target: hQC (Homo sapiens, UniProt Q16769)
Assay: Fluorometric (fluorescent) assay of hQC inhibition, IC50
Assay type: biochemical
Settings: hQC inhibition; read-out: IC50
How it was run: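 Two coupled fluorometric formats at 30° C, pH 8.0 Tris/HCl with EDTA: H-Gln-βNA at 0.2 mM read at 320/410 nm, or H-Gln-AMC at varied levels read at 380/460 nm, each started by adding QC.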

hQC, sequence (Q16769 29-361): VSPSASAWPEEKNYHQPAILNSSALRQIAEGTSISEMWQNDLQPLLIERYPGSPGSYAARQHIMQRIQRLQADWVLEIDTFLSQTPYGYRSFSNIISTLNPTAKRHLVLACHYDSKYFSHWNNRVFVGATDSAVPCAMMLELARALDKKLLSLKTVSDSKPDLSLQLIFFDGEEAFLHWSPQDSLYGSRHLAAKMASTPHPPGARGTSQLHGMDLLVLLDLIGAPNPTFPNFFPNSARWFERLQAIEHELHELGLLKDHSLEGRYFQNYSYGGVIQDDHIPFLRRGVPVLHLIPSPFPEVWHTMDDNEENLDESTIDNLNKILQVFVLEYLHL

Point of comparison: `c1ccc(-c2ccc(C(Nc3ccc4[nH]cnc4c3)c3nnnn3CCc3cccs3)cc2)nc1` (stereo not shown) [compound 211, (1H-Benzoimidazol-5-yl)-{(4-pyridin-2-yl-phenyl)-[1-(2-thiophen-2-yl-ethyl)-1H-tetrazol-5-yl]-methyl}-amine], pIC50 5.66. Against it:
- O=c1c(C(Nc2ccc3[nH]cnc3c2)c2nnnn2CCc2cccs2)coc2ccccc12 (stereo not shown) [compound 122, 3-{(1H-Benzoimidazol-5-ylamino)-[1-(2-thiophen-2-yl-ethyl)-1H-tetrazol-5-yl]-methyl}-chromen-4-one] — 0.35 log units lower, 5.31
- COc1ccc(C(Nc2ccc3[nH]cnc3c2)c2nnnn2Cc2cccnc2)cc1Br (stereo not shown) [compound 142, (1H-Benzoimidazol-5-yl)-[(3-bromo-4-methoxy-phenyl)-(1-pyridin-3-ylmethyl-1H-tetrazol-5-yl)-methyl]-amine] — 0.74 log units higher, 6.40
- CCCOc1cccc(C(Nc2ccc3[nH]cnc3c2)c2nnnn2CC2CCCO2)c1 (stereo not shown) [compound 141, (1H-Benzoimidazol-5-yl)-{(3-propoxy-phenyl)-[1-(tetrahydro-furan-2-ylmethyl)-1H-tetrazol-5-yl]-methyl}-amine] — 0.26 log units lower, 5.40
- COc1ccc(C(Nc2ccc3[nH]cnc3c2)c2nnnn2CC(=O)N2CCc3ccccc3C2)cc1 (stereo not shown) [compound 209, 2-{5-[(1H-Benzoimidazol-5-ylamino)-(4-methoxy-phenyl)-methyl]-tetrazol-1-yl}-1-(3,4-dihydro-1H-isoquinolin-2-yl)-ethanone] — 0.26 log units lower, 5.40
- O=C(Cn1nnnc1C(Nc1ccc2[nH]cnc2c1)c1ccc(Br)cc1)NCCc1c[nH]c2ccccc12 (stereo not shown) [compound 200, 2-{5-[(1H-Benzoimidazol-5-ylamino)-(4-bromo-phenyl)-methyl]-tetrazol-1-yl}-N-[2-(1H-indol-3-yl)-ethyl]-acetamide] — the same, 5.66
- Fc1cc(C(Nc2ccc3[nH]cnc3c2)c2nnnn2CCc2cccs2)ccc1Cl (stereo not shown) [compound 207, (1H-Benzoimidazol-5-yl)-{(4-chloro-3-fluoro-phenyl)-[1-(2-thiophen-2-yl-ethyl)-1H-tetrazol-5-yl]-methyl}-amine] — 0.26 log units lower, 5.40
- Cc1ccc(C(Nc2ccc3[nH]cnc3c2)c2nnnn2CCCN2CCCC2=O)cc1C (stereo not shown) [compound 164, 1-(3-{5-[(1H-Benzoimidazol-5-ylamino)-(3,4-dimethyl-phenyl)-methyl]-tetrazol-1-yl}-propyl)-pyrrolidin-2-one] — 0.35 log units lower, 5.31
- O=[N+]([O-])c1cc(C(Nc2ccc3[nH]cnc3c2)c2nnnn2Cc2ccccc2Cl)ccc1Cl (stereo not shown) [compound 148, (1H-Benzoimidazol-5-yl)-[[1-(2-chloro-benzyl)-1H-tetrazol-5-yl]-(4-chloro-3-nitro-phenyl)-methyl]-amine] — 0.23 log units higher, 5.89
- CCOC(=O)C1CCCCC1n1nnnc1C(Nc1ccc2[nH]cnc2c1)c1cccc(C(=O)OC)c1 (stereo not shown) [compound 195, 3-{(1H-Benzoimidazol-5-ylamino)-[1-(2-ethoxycarbonyl-cyclohexyl)-1H-tetrazol-5-yl]-methyl}-benzoic acid methyl ester] — 0.42 log units lower, 5.24
- Brc1cc(Br)cc(C(Nc2ccc3[nH]cnc3c2)c2nnnn2CCc2cccs2)c1 (stereo not shown) [compound 177, (1H-Benzoimidazol-5-yl)-{(3,5-dibromo-phenyl)-[1-(2-thiophen-2-yl-ethyl)-1H-tetrazol-5-yl]-methyl}-amine] — the same, 5.66
- Oc1ccc(Cl)cc1C(Nc1ccc2[nH]cnc2c1)c1nnnn1C1CCCCC1 (stereo not shown) [compound 193, 2-[(1H-Benzoimidazol-5-ylamino)-(1-cyclohexyl-1H-tetrazol-5-yl)-methyl]-4-chloro-phenol] — 0.42 log units lower, 5.24
- COC(=O)c1cccc(C(Nc2ccc3[nH]cnc3c2)c2nnnn2-c2ccc(C(C)(C)C)cc2)c1 (stereo not shown) [compound 128, 3-{(1H-Benzoimidazol-5-ylamino)-[1-(4-tert-butyl-phenyl)-1H-tetrazol-5-yl]-methyl}-benzoic acid methyl ester] — 0.49 log units lower, 5.17
- C/C=C/C=C/C(Nc1ccc2[nH]cnc2c1)c1nnnn1CCc1cccs1 (stereo not shown) [compound 161, (1H-Benzoimidazol-5-yl)-{(2E,4E)-1-[1-(2-thiophen-2-yl-ethyl)-1H-tetrazol-5-yl]-hexa-2,4-dienyl}-amine] — 0.42 log units lower, 5.24

Same assay, conditions: purified compound from preparative synthesis; fluorescent assay; read-out: IC50 hQC

Point of comparison: `Clc1ccc(Cn2nnnc2C(NCCCn2ccnc2)c2ccc3[nH]ccc3c2)cc1` (stereo not shown) [Compound 6, [[1-(4-Chloro-benzyl)-1H-tetrazol-5-yl]-(1H-indol-5-yl)-methyl]-(3-imidazol-1-yl-propyl)-amine], pIC50 6.35. Against it:
- Cc1ccc(O)c(C(NCCCn2ccnc2)c2nnnn2CC(C)(C)C)c1 (stereo not shown) [Compound 63, 2-[[1-(2,2-Dimethyl-propyl)-1H-tetrazol-5-yl]-(3-imidazol-1-yl-propylamino)-methyl]-4-methyl-phenol] — 0.72 log units lower, 5.63

Same assay, conditions: read-out: IC50

Point of comparison: `CCCCn1nnnc1C(NCCCn1ccnc1)c1cc2ccccc2o1` (stereo not shown) [compound 23], pIC50 5.03. Against it:
- CCCCn1nnnc1C(NCCCn1ccnc1)c1ccc2ccccc2n1 (stereo not shown) [compound 22, [(1-Butyl-1H-tetrazol-5-yl)-quinolin-2-yl-methyl]-(3-imidazol-1-yl-propyl)-amine] — 0.48 log units higher, 5.51
- Cc1ccc(C(NCCCn2ccnc2)c2nnnn2Cc2ccc(Cl)cc2)cc1C (stereo not shown) [compound 2, [[1-(4-Chloro-benzyl)-1H-tetrazol-5-yl]-(3,4-dimethyl-phenyl)-methyl]-(3-imidazol-1-yl-propyl)-amine] — within 0.2 log units, 5.17
- Cn1nnnc1C(NCCCn1ccnc1)c1ccc2cccc(O)c2n1 (stereo not shown) [compound 29, 2-[(3-imidazol-1-yl-propylamino)-(1-methyl-1H-tetrazol-5-yl)-methyl]-quinolin-8-ol] — 0.48 log units higher, 5.51
- COCCCn1nnnc1C(NCCCn1ccnc1)c1ccc2ccccc2n1 (stereo not shown) [compound 36, (3-Imidazol-1-yl-propyl)-{[1-(3-methoxy-propyl)-1H-tetrazol-5-yl]-quinolin-2-yl-methyl}-amine] — 0.48 log units higher, 5.51
- COCCn1nnnc1C(NCCCn1ccnc1)c1cc(C)ccc1O (stereo not shown) [compound 39, 2-{(3-Imidazol-1-yl-propylamino)-[1-(2-methoxy-ethyl)-1H-tetrazol-5-yl]-methyl}-4-methyl-phenol] — within 0.2 log units, 5.07
- C=CCn1nnnc1C(NCCCn1ccnc1)c1cc(C)c(C)cc1C (stereo not shown) [compound 48, [(1-Allyl-1H-tetrazol-5-yl)-(2,4,5-trimethyl-phenyl)-methyl]-(3-imidazol-1-yl-propyl)-amine] — the same, 5.03
- Clc1ccc(Cn2nnnc2C(NCCCn2ccnc2)c2ccc3ccccc3n2)cc1 (stereo not shown) [compound 7, {[1-(4-Chloro-benzyl)-1H-tetrazol-5-yl]-quinolin-2-yl-methyl}-(3-imidazol-1-yl-propyl)-amine] — 0.86 log units higher, 5.89
- Clc1ccc(Cn2nnnc2C(NCCCn2ccnc2)c2ccc(Cl)c(Cl)c2)cc1 (stereo not shown) [compound 1, [[1-(4-Chloro-benzyl)-1H-tetrazol-5-yl]-(3,4-dichloro-phenyl)-methyl]-(3-imidazol-1-yl-propyl)-amine] — 0.63 log units higher, 5.66
- c1cn(CCCNC(c2ccc3[nH]ccc3c2)c2nnnn2C2CCCC2)cn1 (stereo not shown) [compound 26] — 0.48 log units higher, 5.51
- COc1ccc(C(Nc2ccc3[nH]cnc3c2)c2nnnn2CC2CCCO2)cc1 (stereo not shown) [compound 88, (1H-Benzoimidazol-5-yl)-{(4-methoxy-phenyl)-[1-(tetrahydro-furan-2-ylmethyl)-1H-tetrazol-5-yl]-methyl}-amine] — 0.28 log units higher, 5.31
- Cc1ccc(O)c(C(NCCCn2ccnc2)c2nnnn2C(C)(C)C)c1 (stereo not shown) [compound 59, 2-[(1-tert-Butyl-1H-tetrazol-5-yl)-(3-imidazol-1-yl-propylamino)-methyl]-4-methyl-phenol] — 0.86 log units higher, 5.89
- C=CCn1nnnc1C(NCCCn1ccnc1)c1ccc2ccccc2n1 (stereo not shown) [compound 47, [(1-Allyl-1H-tetrazol-5-yl)-quinolin-2-yl-methyl]-(3-imidazol-1-yl-propyl)-amine] — 0.48 log units higher, 5.51
- Fc1ccc2c(C(Nc3ccc4[nH]cnc4c3)c3nnnn3C3CCCCC3)c[nH]c2c1 (stereo not shown) [compound 81, (1H-Benzoimidazol-5-yl)-[(1-cyclohexyl-1H-tetrazol-5-yl)-(6-fluoro-1H-indol-3-yl)-methyl]-amine] — 0.48 log units higher, 5.51
- Oc1cccc2ccc(C(NCCCn3ccnc3)c3nnnn3C3CCCC3)nc12 (stereo not shown) [compound 25, 2-[(1-Cyclopentyl-1H-tetrazol-5-yl)-(3-imidazol-1-yl-propylamino)-methyl]-quinolin-8-ol] — 0.63 log units higher, 5.66
- Clc1ccc(Cn2nnnc2C(NCCCn2ccnc2)c2ccc3[nH]ccc3c2)cc1 (stereo not shown) [Compound 6, [[1-(4-Chloro-benzyl)-1H-tetrazol-5-yl]-(1H-indol-5-yl)-methyl]-(3-imidazol-1-yl-propyl)-amine] — 1.37 log units higher, 6.40
- CC(C)(C)n1nnnc1C(NCCCn1ccnc1)c1ccc2cccc(O)c2n1 (stereo not shown) [compound 60, 2-[(1-tert-Butyl-1H-tetrazol-5-yl)-(3-imidazol-1-yl-propylamino)-methyl]-quinolin-8-ol] — 1.37 log units higher, 6.40
- C=CCn1nnnc1C(NCCCn1ccnc1)c1ccc2cccc(O)c2n1 (stereo not shown) [compound 45, 2-[(1-Allyl-1H-tetrazol-5-yl)-(3-imidazol-1-yl-propylamino)-methyl]-quinolin-8-ol] — 0.37 log units higher, 5.40
- CCOC(=O)C1CCCCC1n1nnnc1C(Nc1ccc2[nH]cnc2c1)c1ccc(Cl)cc1 (stereo not shown) [compound 94] — the same, 5.03
- COc1ccc(C(Nc2ccc3[nH]cnc3c2)c2nnnn2Cc2ccccc2Cl)c(C)c1 (stereo not shown) [compound 77, (1H-Benzoimidazol-5-yl)-[[1-(2-chloro-benzyl)-1H-tetrazol-5-yl]-(4-methoxy-2-methyl-phenyl)-methyl]-amine] — 0.86 log units higher, 5.89
- c1ccc(CC(Nc2ccc3[nH]cnc3c2)c2nnnn2Cc2cccnc2)cc1 (stereo not shown) [compound 73, (1H-Benzoimidazol-5-yl)-[2-phenyl-1-(1-pyridin-3-ylmethyl-1H-tetrazol-5-yl)-ethyl]-amine] — 0.21 log units higher, 5.24
- C=CCn1nnnc1C(NCCCn1ccnc1)c1cc(C)ccc1O (stereo not shown) [compound 44, 2-[(1-Allyl-1H-tetrazol-5-yl)-(3-imidazol-1-yl-propylamino)-methyl]-4-methyl-phenol] — 0.28 log units higher, 5.31
- c1ccc(-c2ccc(C(Nc3ccc4[nH]cnc4c3)c3nnnn3CC3CCCO3)cc2)nc1 (stereo not shown) [compound 76, (1H-Benzoimidazol-5-yl)-{(4-pyridin-2-yl-phenyl)-[1-(tetrahydro-furan-2-ylmethyl)-1H-tetrazol-5-yl]-methyl}-amine] — 0.48 log units higher, 5.51
- Cc1ccc(O)c(C(NCCCn2ccnc2)c2nnnn2CC(C)(C)C)c1 (stereo not shown) [Compound 63, 2-[[1-(2,2-Dimethyl-propyl)-1H-tetrazol-5-yl]-(3-imidazol-1-yl-propylamino)-methyl]-4-methyl-phenol] — 2.37 log units higher, 7.40
